Measurements reported in ChEMBL document CHEMBL1135198, “Structure-activity relationships of non-imidazole H(3) receptor ligands. Part 1” (Bioorg Med Chem Lett, 2002).

What was measured:
[1] = molecular target: Histamine H2 receptor (Homo sapiens, UniProt P25021); experiment: Binding affinity for the human Histamine H2 receptor
[2] = molecular target: Histamine H3 receptor (Rattus norvegicus, UniProt Q9QYN8); experiment: Binding affinity for the rat cortical Histamine H3 receptor
[3] = molecular target: Histamine H1 receptor (Homo sapiens, UniProt P35367); experiment: Binding affinity for the human Histamine H1 Receptor
Histamine H1 receptor, sequence (P35367 whole entry): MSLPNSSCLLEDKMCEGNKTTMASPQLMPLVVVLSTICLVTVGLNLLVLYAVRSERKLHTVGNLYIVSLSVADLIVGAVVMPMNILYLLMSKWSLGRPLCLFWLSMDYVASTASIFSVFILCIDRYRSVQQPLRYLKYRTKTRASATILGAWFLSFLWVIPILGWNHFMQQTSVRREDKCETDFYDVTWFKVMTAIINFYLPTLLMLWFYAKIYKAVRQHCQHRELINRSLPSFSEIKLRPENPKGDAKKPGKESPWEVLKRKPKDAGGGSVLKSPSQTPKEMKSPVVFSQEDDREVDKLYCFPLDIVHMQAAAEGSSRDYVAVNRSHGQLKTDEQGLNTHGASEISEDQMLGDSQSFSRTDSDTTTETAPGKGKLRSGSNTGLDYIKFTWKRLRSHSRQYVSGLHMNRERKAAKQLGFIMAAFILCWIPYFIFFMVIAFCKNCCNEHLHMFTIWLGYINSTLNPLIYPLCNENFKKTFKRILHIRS

Histamine H2 receptor, sequence (P25021 whole entry): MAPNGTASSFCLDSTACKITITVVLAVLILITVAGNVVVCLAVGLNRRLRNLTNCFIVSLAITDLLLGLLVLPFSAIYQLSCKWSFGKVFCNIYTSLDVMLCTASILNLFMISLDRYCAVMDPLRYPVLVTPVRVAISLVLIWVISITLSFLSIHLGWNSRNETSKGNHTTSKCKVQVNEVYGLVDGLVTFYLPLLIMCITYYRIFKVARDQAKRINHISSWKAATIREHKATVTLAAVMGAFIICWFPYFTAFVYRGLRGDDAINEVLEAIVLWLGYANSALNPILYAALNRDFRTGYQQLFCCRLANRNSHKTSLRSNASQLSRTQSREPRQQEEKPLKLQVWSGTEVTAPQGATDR
Histamine H3 receptor, sequence (Q9QYN8 whole entry): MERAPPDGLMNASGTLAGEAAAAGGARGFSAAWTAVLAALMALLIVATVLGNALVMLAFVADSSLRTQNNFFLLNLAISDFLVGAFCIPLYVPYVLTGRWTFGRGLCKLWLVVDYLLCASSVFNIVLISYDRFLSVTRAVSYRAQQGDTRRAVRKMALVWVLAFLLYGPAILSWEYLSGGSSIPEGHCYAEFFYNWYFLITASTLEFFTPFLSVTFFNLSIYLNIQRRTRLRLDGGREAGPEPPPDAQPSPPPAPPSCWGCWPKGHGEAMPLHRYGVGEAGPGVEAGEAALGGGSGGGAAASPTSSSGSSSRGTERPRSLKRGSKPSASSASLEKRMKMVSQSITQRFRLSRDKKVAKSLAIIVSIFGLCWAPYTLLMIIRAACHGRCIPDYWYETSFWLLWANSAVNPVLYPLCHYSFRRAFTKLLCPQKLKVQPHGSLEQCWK

Structure (SMILES)	Ki [1]	Ki [2]	Ki [3]
CCOC(=O)N1CCN(CCCOc2ccc(C(=O)CC)cc2)CC1	56200 nM	5.37 nM	1660 nM
CCCCCC(=O)c1ccc(OCCCN2CCN(C(=O)c3cnccn3)CC2)cc1	46800 nM	18.2 nM	2040 nM
CCCCCC(=O)c1ccc(OCCCN2CCN(C(=O)c3ccco3)CC2)cc1	20000 nM	10.5 nM	398 nM
CCCCCC(=O)c1ccc(OCCCN2CCN(C(=O)C(C)C)CC2)cc1	29500 nM	–	3980 nM
CCCCCC(=O)c1ccc(OCCCN2CCN(C(=O)c3cccs3)CC2)cc1	14800 nM	16.2 nM	74.1 nM
CCCCCC(=O)c1ccc(OCCCN2CCN(C(=O)OCC)CC2)cc1	12600 nM	1.38 nM	275 nM
CCOC(=O)N1CCN(CCCOc2ccc(C(C)=O)cc2)CC1	39800 nM	5.01 nM	2240 nM
CCOC(=O)N1CCN(CCCOc2ccc(C(=O)C3CC3)cc2)CC1	79400 nM	4.68 nM	1410 nM
CCCCCCCCC(=O)c1ccc(OCCCN2CCN(C(=O)OCC)CC2)cc1	2690 nM	7.94 nM	501 nM
CCCCCC(=O)c1ccc(OCCCN2CCN(C(=O)c3ccccn3)CC2)cc1	18600 nM	52.5 nM	417 nM
CCCCCC(=O)c1ccc(OCCCN2CCN(S(=O)(=O)C(C)C)CC2)cc1	20900 nM	12.6 nM	11200 nM
CCCCCC(=O)c1ccc(OCCCN2CCN(S(=O)(=O)c3ccc(C#N)cc3)CC2)cc1	12300 nM	37.2 nM	13500 nM
CCOC(=O)N1CCN(CCCOc2ccc(C(=O)c3cccc(C)c3)cc2)CC1	3720 nM	288 nM	380 nM
CCCCCC(=O)c1ccc(OCCCN2CCN(C(=O)C3CCC3)CC2)cc1	10200 nM	3.16 nM	355 nM
CCCCCC(=O)c1ccc(OCCCN2CCN(C(=O)CSCC)CC2)cc1	22900 nM	11 nM	1100 nM
CCOC(=O)N1CCN(CCCOc2ccc(C(=O)c3ccc(C(C)(C)C)cc3)cc2)CC1	1550 nM	13.2 nM	562 nM
CCCCCC(=O)c1ccc(OCCCN2CCN(CC3CC3)CC2)cc1	18600 nM	15.8 nM	2240 nM
CCCCCC(=O)c1ccc(OCCCN2CCN(C(=O)OC(C)C)CC2)cc1	17800 nM	5.01 nM	309 nM
CCCCCC(=O)c1ccc(OCCCN2CCN(C(=O)OCCCC)CC2)cc1	1860 nM	20.4 nM	575 nM
CCCCCC(=O)c1ccc(OCCCN2CCN(CCCC)CC2)cc1	7590 nM	13.5 nM	661 nM
CCCCCC(=O)c1ccc(OCCCN2CCN(C(=O)OC)CC2)cc1	12000 nM	3.02 nM	1070 nM
CCCCCC(=O)c1ccc(OCCCN2CCN(C(=O)CCC)CC2)cc1	22900 nM	6.46 nM	871 nM
CCCCCC(=O)c1ccc(OCCCC2CCNCC2)cc1	–	58900 nM	–
CCCCCC(=O)c1ccc(OCCCN2CCCCC2)cc1	–	63.1 nM	–
CCCCCC(=O)c1ccc(OCCCN2CCN(C(=O)N3CCCC3)CC2)cc1	14800 nM	7.41 nM	1050 nM
CCCCCC(=O)c1ccc(OCCCN2CCN(C(=O)NC(C)C)CC2)cc1	11200 nM	9.55 nM	1200 nM
CCCCCC(=O)c1ccc(OCCCN2CCN(C(=O)OCC(C)C)CC2)cc1	3720 nM	10 nM	275 nM
CCOC(=O)N1CCN(CCCOc2ccc(C(=O)Cc3ccccc3)cc2)CC1	12600 nM	69.2 nM	933 nM
CCCCCC(=O)c1ccc(OCCCN2CCN(C(=O)c3cccn3C)CC2)cc1	11700 nM	4.07 nM	56.2 nM
CCCCCC(=O)c1ccc(OCCCN2CCN(C(=O)N3CCOCC3)CC2)cc1	17800 nM	5.89 nM	4170 nM
